# Earlier results in US20140010802A1, “SYSTEMS AND METHODS FOR DIAGNOSING A PREDISPOSITION TO DEVELOP CANCER” (University of Hawaii, Office of Technology Transfer and …, priority 2011, published 2014).
# Tested on: MM patients
# Settings: phase 1 clinical trial, 3 MM patients
smiles,measurement,value
Cc1c(CN2CCN(C(=O)[C@H](C)O)CC2)sc2c(N3CCOCC3)nc(-c3cnc(N)nc3)nc12 [GDC0980],anti-tumor effects in patients,anti-tumor effects
